{
  "source": "paper PMC10072326",
  "about": "“Promising anticancer agents based on 8-hydroxyquinoline hydrazone copper(II) complexes” (Frontiers in Chemistry, 2023)",
  "key": {"[1]": {"assay": "Thermodynamic solubility at pH 7.4", "assay_type": "physicochemical", "details": "Cu(II) complexes; pH 7.40; 20 mM HEPES; 25.0°C", "procedure": "Thermodynamic solubility (S) was measured for the new ligands, L^7 and L^8, since data for the rest of the series was previously reported (9), and for selected Cu(II) complexes: 1, 5 and 6. Solubility was measured for the saturated solutions in water at pH 7.40 in 20 mM HEPES at 25.0 ± 0.1 °C. The concentration was determined by UV-Vis spectrophotometry using the stock solutions of the compounds with known concentrations dissolved in 100% DMSO, 50% and 25% (v/v) DMSO/buffered aqueous solutions for the calibration."}, "A-375 cells [2]": {"system": "A-375 cells", "assay": "Sulforhodamine B (SRB) cell viability assay", "assay_type": "cell-based", "details": "72 h", "procedure": "(§1) Copper compounds were tested, along with the free ligands and cisplatin as the positive control, for their cytotoxicity on both melanoma (A-375) and lung adenocarcinoma (A-549) cell lines in the concentration range 0.78–50 μM. Following 72 h of incubation, cell viability was measured via sulforhodamine B (SRB) assay (Supplementary Figure S25).\n(§2) A-375 cells (ATCC, CRL-3222) were grown in Dulbecco’s Modified Eagle Medium with high glucose (Gibco #11965118) and A-549 (ATCC, CCL-185) cells were grown in Dulbecco’s Modified Eagle Medium F-12 (Gibco #11320033), supplemented with 10% FBS (Gibco, #10500064) and Penicillin-Streptomycin (10,000 U/mL, Gibco, #15140122). Cells were incubated at 37 °C, 5% CO2 incubator and subcultured every 3 days.\n(§3) All the tested complexes were dissolved in DMSO (10 mM stock solution), and aliquots were stored at -20 °C, thawed on the experiment day and used only once. For SRB cell viability assay, A-375 and A-549 cells were seeded on 96-well plates (4×10^3 cells/well) and treated with serial dilutions of indicated compounds (with a concentration range of 0-50 μM, 72 h). Trichloroacetic acid (TCA) was added to wells for fixation at a final concentration of 10%, for 1 h at 4 °C. Each well was washed five times with ddH2O, dried, and incubated with 0.4% (w/v) SRB dye (50 µL/well) for 30 min at room temperature. The wells were washed with 1% acetic acid (v/v) five times, and 150 µL of 10 mM Tris solution was added to dissolve the stain. Colorimetric measurements were taken at λ = 564 nm. Viability percentage was calculated as follows: % Cell Viability = [100 × (sample Abs.-blank) / (non-treated control Abs.-blank)]."}, "A-549 cells [3]": {"system": "A-549 cells", "assay": "Sulforhodamine B (SRB) cell viability assay", "assay_type": "cell-based", "details": "72 h", "procedure": "as §1, §2, §3"}, "S. aureus ATCC 25928": {"system": "S. aureus ATCC 25928", "assay": "MIC determination", "assay_type": "cell-based, Staphylococcus aureus", "details": "S. aureus ATCC 25928 (sensitive); 18 h", "procedure": "(§4) Wild-type Escherichia coli K-12 AG100 strain [argE3 thi-1 rpsL xyl mtl Δ(gal-uvrB) supE44] expressing the AcrAB TolC efflux pump at its basal level and Klebsiella pneumoniae ATCC 49619 Gram-negative strains were studied in the experiments. Sensitive (ATCC 25928) and the methicillin-resistant (MRSA 272123) subspecies of Staphylococcus aureus were used as Gram-positive strains in the assays.\n(§5) Minimum inhibitory concentration (MIC) values of selected compounds were determined in 96-well plates based on the Clinical and Laboratory Standard Institute guidelines (CLSI guidelines). The stock solutions of the compounds were dissolved in DMSO using 1.3 μL of Mueller Hinton Broth, and then two-fold serial dilutions were performed. The starting concentration of the compounds was 100 μM. Then 10^‒4 dilution of an overnight bacterial culture in 100 μL of medium was added to each well, except for the medium control wells."}, "S. aureus MRSA 272123": {"system": "S. aureus MRSA 272123", "assay": "MIC determination", "assay_type": "cell-based, Staphylococcus aureus", "details": "18 h", "procedure": "as §4, §5"}, "[4]": {"system": "Escherichia coli K-12 AG100", "assay": "MIC determination", "assay_type": "cell-based", "details": "E. coli; 18 h", "procedure": "as §4, §5"}, "[5]": {"system": "Klebsiella pneumoniae ATCC 49619", "assay": "MIC determination", "assay_type": "cell-based", "details": "K. pneumoniae; 18 h", "procedure": "as §4, §5"}, "A-549 cells [6]": {"system": "A-549 cells", "assay": "ROS activation via dihydroethidium staining, flow cytometry", "assay_type": "cell-based", "from_the_text": "Since reactive oxygen species appeared to be involved in the nicking activity of the complexes (Supplementary Figure S24), we investigated whether there was an increase in ROS formation in cells upon drug treatment. Dihydroethidium (DHE) is a reduced form of ethidium, after oxidation with superoxide (ROS), it is converted into 2-hydroxy ethidium, which is a chemical that emits red fluorescence and intercalates DNA. […] Similar results were obtained using A-549 cells, but with much milder induction of ROS except for 8, which remained high (Supplementary Figure S26).\n(§6) 5 × 10^4 number of A-375 and A-549 cells were seeded on 12-well plates, and the next day cells were treated with either copper complexes (calculated IC70 values) or cisplatin (15 μM). Following 48 h of treatment, cells were trypsinized, centrifuged and resuspended in PBS solution supplemented with 1% fetal bovine serum (FBS) (10^6 cells/mL).\nOxidative stress levels were assessed by Muse Oxidative Stress Kit (Luminex, MCH100111) using the same protocol as previously described (21)."}, "A-375 cells [7]": {"system": "A-375 cells", "assay": "γH2AX staining for DNA double-strand breaks", "assay_type": "cell-based", "procedure": "Indeed, we examined whether DNA nicks induced by the complexes on pure plasmid DNA would reflect in cell culture as increased DNA break formation. To test this, A-375 cells were stained using γH2AX, which is a common marker for DSBs (Figure 7B). […] For complex 1 the opposite effect was observed and despite its lower ability to induce ROS formation, the DSB were the highest among the group.\nas §6\nThe Muse ɣH2A.X Activation Dual Detection Kit (Luminex, MCH200101) protocols were followed with minor changes. 1 × 10^5 cells were mixed with ice-cold 1X Fixation Buffer at the same volume for 5 min. Cells were centrifuged (600 g, 5 min), and the pellet was suspended with 100 μL of ice-cold 1X Permeabilization Buffer (10 min, on ice), and centrifuged again. The cell pellet was resuspended with 50 μL of antibody mixture of (20X) Anti-phospho-Histone H2A.X (Ser139), Alexa Fluor 555 and (20X) Anti-H2A.X, PECy5 antibodies. Following 30 min of antibody staining, cells were centrifuged and resuspended with 1X Assay Buffer. DNA breaks were analysed with Muse Cell Analyzer (Merck Millipore)."}, "A-375 cells [8]": {"system": "A-375 cells", "assay": "Cytotoxicity with ROS scavenger NAC (SRB)", "assay_type": "cell-based", "details": "10 mM NAC pre-treatment 2 h, co-treatment 72 h", "from_the_text": "(§7) Additionally, to assess whether the ROS induction contributed to the cytotoxicity triggered by these complexes, we used a ROS scavenger, N-acetyl-cysteine (NAC), in combination with 1, 3, 5 or 8. […] Indeed, it is also possible that the cytotoxicity induced by 5 is not by ROS, despite the induction observed in Figure 7A.\n(§8) Figure S27- Protective mechanism of NAC against Cu(II) complexes. Addition of NAC can protect cells from the cytotoxic effects of the Cu(II) complexes A-375 (A) and A-549 (B) cells were pre-treated with 10 mM of ROS scavenger N-acetylcysteine (NAC) for 2 h, then co-treated with freshly prepared Cu(II) complexes (1, 3, 5 and 8) for 72 h. Cell viability was measured via SRB assay (2 biological replicates, each done in duplicate). The error bars represent standard error of the mean. Student t-test was used for statistical analysis, *p<0.05, **p<0.01"}, "A-549 cells [9]": {"system": "A-549 cells", "assay": "Cytotoxicity with ROS scavenger NAC (SRB)", "assay_type": "cell-based", "details": "10 mM NAC pre-treatment 2 h, co-treatment 72 h", "from_the_text": "as §7, §8"}, "A-375 cells [10]": {"system": "A-375 cells", "assay": "Apoptosis by Annexin V/7-AAD and Caspase 3/7 flow cytometry", "assay_type": "cell-based", "details": "48 h, Annexin-V and caspase 3/7", "procedure": "To determine the mode of cell death, A-375 cells were incubated with the Cu complexes and cisplatin for 48 h and, induction of apoptosis was evaluated using both Annexin-V staining and activation of caspase 3/7 in response to drug treatment. While Annexin-V staining relies on the loss of plasma membrane asymmetry, caspases 3 and 7 are critical proteases, which are responsible for the cleavage of many cellular proteins. […] Similar results were obtained in A-549 cells (Supplementary Figure S28).\nas §6\nAnnexin V & Dead Cell Kit (Luminex, MCH100105) protocols were followed for Annexin V activation. Briefly, 1 × 10^5 cells were stained with Annexin V and 7-AAD solution in a 1:1 ratio and incubated at room temperature for 20 min. The apoptotic cell population was evaluated with Muse Cell Analyzer (Merck Millipore).\nCaspase-3/7 Kit (Luminex, MCH100108) protocols were followed for Caspase 3/7 staining. 2 × 10^5 cells were stained with 5 μL of Caspase 3/7 antibody (1:8 dilution in PBS) and incubated at room temperature for 30 min. Then, the cells were stained with 100 μL of 7-AAD antibody mixture (1:75 dilution with 1 × Assay Buffer) for 5 min. Caspase 3/7 and 7-AAD positivity were assessed with Muse Cell Analyzer (Merck Millipore)."}},
  "data": [
    {"molecule": "[Cu+2].[O-]C(=NN=Cc1ccc2cccc([O-])c2n1)c1ccncc1", "note": "[Complex 8, [Cu(L^8)]3]", "values": [
      {"measurement": "thermodynamic solubility S 7.4", "setting": "[1]", "value": "3.3 ± 0.3", "unit": "µM"},
      {"measurement": "IC50", "setting": "A-375 cells [2]", "value": "2.8 ± 0.4", "unit": "µM"},
      {"measurement": "IC50", "setting": "A-549 cells [3]", "value": "5.1 ± 0.2", "unit": "µM"},
      {"measurement": "MIC", "setting": "S. aureus ATCC 25928", "value": "> 100", "unit": "µM"},
      {"measurement": "MIC", "setting": "S. aureus MRSA 272123", "value": "> 100", "unit": "µM"},
      {"measurement": "MIC", "setting": "[4]", "value": "> 100", "unit": "µM"},
      {"measurement": "MIC", "setting": "[5]", "value": "> 100", "unit": "µM"},
      {"measurement": "ROS induction, in words", "setting": "A-549 cells [6]", "value": "remained high"},
      {"measurement": "DSB induction (γH2AX), in words", "setting": "A-375 cells [7]", "value": "highest levels of DSB induction"},
      {"measurement": "effect of NAC on cytotoxicity", "setting": "A-375 cells [8]", "value": "significantly reduced"},
      {"measurement": "effect of NAC on cytotoxicity", "setting": "A-549 cells [9]", "value": "significantly reduced"},
      {"measurement": "induction of apoptosis, in words", "setting": "A-375 cells [10]", "value": "most effective drug among the complexes tested"}
    ]}
  ]
}
